Test results from publication PMC3640428 (Journal of the American Chemical Society, 2013).

Target: T1, T. thermophilus GluRS (glutamyl-tRNA synthetase) (Thermus thermophilus, UniProt P27000)
T1 sequence (P27000 1-468): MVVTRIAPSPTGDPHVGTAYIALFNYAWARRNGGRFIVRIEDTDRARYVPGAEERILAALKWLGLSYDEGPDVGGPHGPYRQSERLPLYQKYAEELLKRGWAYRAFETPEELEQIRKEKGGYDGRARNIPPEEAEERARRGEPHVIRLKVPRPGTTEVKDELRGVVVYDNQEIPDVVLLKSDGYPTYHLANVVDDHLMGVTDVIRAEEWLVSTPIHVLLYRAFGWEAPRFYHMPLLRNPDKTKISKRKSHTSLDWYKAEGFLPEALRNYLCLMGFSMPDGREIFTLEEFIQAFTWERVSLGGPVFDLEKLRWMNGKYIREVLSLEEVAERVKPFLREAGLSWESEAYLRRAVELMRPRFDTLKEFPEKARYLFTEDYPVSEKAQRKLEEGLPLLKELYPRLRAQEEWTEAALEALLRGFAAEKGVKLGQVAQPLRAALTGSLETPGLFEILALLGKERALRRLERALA
Assay: intrinsic tryptophan fluorescence titration
Type: binding

Nc1ncnc2c1ncn2[C@@H]1O[C@H](COP(=O)(O)OP(=O)(O)OP(=O)(O)O)[C@@H](O)[C@H]1O [ATP]
Kd: 50 ± 12 µM
